# Assay results: US20150376570A1, “METHODS AND COMPOSITIONS FOR PRODUCING INDUCED HEPATOCYTES” (GENENTECH, INC., priority 2012, published 2015)
# Experiments:
# BJ fibroblasts = experiment: Albumin and α-fetoprotein gene expression by qPCR in transfected fibroblasts; format: cell-based, human; settings: Example 13, 5 consecutive days, 6-well plate
# Text: RPL19 (Hs02338565_gH) was used for endogenous control assays. The ViiA 7 Real Time PCR System (Applied Biosystems) was used to perform and analyze qPCRs. If gene expression was not detectable in a sample, an artificial cycle threshold of 41 was applied to allow for comparison.
# Reprogramming experiments were generally performed as follows. Initial reprogramming experiments used mRNA pools containing six different mRNAs encoding the following six transcription factors: FOXA1, FOXA2, FOXA3, HNF4A, HNF1A, and GATA4. This six transcription factor pool containing mRNAs encoding FOXA1, FOXA2, FOXA3, HNF4A, HNF1A, and GATA4 is herein referred to as 6TF. The 6TF mRNA mixture used in these studies contained the mRNA molecules at a molar ratio of 1:1:1:1:1:1. […]
# Albumin (ALB) and α-fetoprotein (AFP) are genes expressed almost exclusively in cells of hepatocyte lineage. […] After 5 days and 9 days, gene expression levels for albumin and α-fetoprotein in the cells were determined by qPCR using methods as described above.
# BJ fibroblasts were transfected once daily with 6TF mRNA mixture (See Table 6 above for 6TF mRNA cocktail composition) or each of the 5TF mRNA mixtures (described above and shown in Table 6) for 5 consecutive days, as described above. After 5 days, gene expression levels for albumin and AFP in the cells were determined by qPCR using methods as described above. […]
# TLR3 = TLR3 activation on 11TF transfection with or without Poly I:C; format: cell-based, human; settings: daily transfection and/or daily Poly I:C supplementation
# Protocol: (See Lee et al., (2012) Cell 151:547-558.) Experiments were performed to examine whether 11TF mRNA mixture could activate TLR3 and to determine whether further activation would increase hepatic induction.
# Experiments were performed to test whether daily supplementation with Poly I:C, a known TLR3 agonist, accompanying 11TF mRNA mixture transfection would further increase expression of albumin and AFP.
Substance,AFP gene expression vs non-transfected control fibroblasts (BJ fibroblasts),albumin gene expression vs non-transfected control fibroblasts (BJ fibroblasts),TLR3 expression above control (TLR3)
HNF1A: mRNA encoding only HNF1A,slightly above,slightly above,
Poly I:C,,,did not activate TLR3
